Results from EP1203770A1 (priority 1992, dated 1994).

Biological target: T1, HIV-1 protease (Human immunodeficiency virus type 1 group M subtype B, UniProt P04585)
T1 construct: The protease (or proteinase), consisting of only 99 amino acids, is among the smallest enzymes known
Test: In vitro HIV protease inhibitory assay (HIV Protease FITC Assay)
Assay type: biochemical
Settings: for inhibition at 0.123 µM / inhibition at 0.37 µM / inhibition at 1.1 µM / inhibition at 3.3 µM / inhibition at 10 µM / inhibition at 30 µM: read-out: HIV-1 Protease % Inhib; for Ki: read-out: HIV-1 FITC Ki
Method in brief: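 Biotin/FITC-labelled peptide substrate cleaved by HIV-1 protease for 1 h at room temperature in the dark, in 0.1 M sodium acetate pH 5.5, 1.0 M NaCl, 0.05% NP-40. Uncleaved substrate captured on avidin beads and separated by filtration; fluorescence gave % inhibition.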

Work on `CCC(c1ccccc1)c1cc(O)c(C(CC)c2ccccc2)c(=O)o1` (stereo not drawn) [Example 186, 3-α-Ethylbenzyl-6-α-ethylbenzyl-4-hydroxy-2H-pyran-2-one] yielded an inhibition at 0.123 µM (HIV-1 Dose 0.123 uM) of under 10%, an inhibition at 0.37 µM (HIV-1 Dose 0.370 uM) of under 10% and an inhibition at 1.1 µM (HIV-1 Dose 1.100 uM) of under 10%. For the same compound, the inhibition at 3.3 µM (HIV-1 Dose 3.300 uM) was 11%, the inhibition at 10 µM (HIV-1 Dose 10.000 uM) was 41.6% and the inhibition at 30 µM (HIV-1 Dose 30.000 uM) was 61.6%. The Ki was 22.4 nM.
Work on `CC[C@H](Cc1ccccc1)c1cc(O)c([C@@H](CC)c2ccccc2)c(=O)o1` [Example 189, 3-([S]-α-ethylbenzyl)-4-hydroxy-6-([R]-α-ethylphenethyl)-2H-pyran-2-one] yielded a Ki of about 15 nM.
Work on `CC(C)CC1(CCc2ccccc2)CC(O)=C(C(c2ccccc2)c2ccccc2)C(=O)O1` (stereo not drawn) [Example 209, 2H-Pyran-2-one, 3-diphenylmethyl-5,6-dihydro-4-hydroxy-6-(2-methylpropyl)-6-(2-phenylethyl)-] yielded an inhibition at 0.123 µM (HIV-1 Dose 0.123 uM) of under 10%, an inhibition at 0.37 µM (HIV-1 Dose 0.370 uM) of 12% and an inhibition at 1.1 µM (HIV-1 Dose 1.100 uM) of 32.2%. It also gave an inhibition at 3.3 µM (HIV-1 Dose 3.300 uM) of 59.9%, an inhibition at 10 µM (HIV-1 Dose 10.000 uM) of 76.7% and an inhibition at 30 µM (HIV-1 Dose 30.000 uM) of 77.8%. The Ki was 92 nM.
`CC(C)CC1(CCc2ccccc2)CC(O)=C(C(/C=C/c2ccccc2)c2ccccc2)C(=O)O1` (stereo not drawn) [Example 210, 2H-Pyran-2-one, 3-(1,3-diphenyl-2-propenyl)-5.6-dihydro-4-hydroxy-6-(2-methylpropyl)-6-(2-phenylethyl)-] showed an inhibition at 0.123 µM (HIV-1 Dose 0.123 uM) of under 10%, an inhibition at 0.37 µM (HIV-1 Dose 0.370 uM) of under 10% and an inhibition at 1.1 µM (HIV-1 Dose 1.100 uM) of 37.5%. The inhibition at 3.3 µM (HIV-1 Dose 3.300 uM) was 61%, the inhibition at 10 µM (HIV-1 Dose 10.000 uM) was 75% and the inhibition at 30 µM (HIV-1 Dose 30.000 uM) was 86%. It also gave a Ki of 78 nM.
`CC(C)CC1(CCc2ccccc2)CC(O)=C(C(CCc2ccccc2)c2ccccc2)C(=O)O1` (stereo not drawn) [Example 211] was tested, and the “HIV-1 Protease % Inhib” value (HIV-1 Dose 0.123 uM) was under 10%, the “HIV-1 Protease % Inhib” value (HIV-1 Dose 0.370 uM) was 21.39% and the “HIV-1 Protease % Inhib” value (HIV-1 Dose 1.100 uM) was 47.29%. The “HIV-1 Protease % Inhib” value (HIV-1 Dose 3.300 uM) was 66.35%, the “HIV-1 Protease % Inhib” value (HIV-1 Dose 10.000 uM) was 89.15% and the “HIV-1 Protease % Inhib” value (HIV-1 Dose 30.000 uM) was 92.11%. For the same compound, the Ki was 64 nM.
With `CCC(Cc1ccccc1)c1cc(O)c(C(c2cccc(NC(=O)Nc3ccccc3)c2)C2CC2)c(=O)o1` (stereo not drawn) [Example 212, 3-(α-Cyclopropyl-meta-[(phenylaminocarbonyl)amino]benzyl)-6-(α-ethylphenethyl)-4-hydroxy-2H-pyran-2-one] the inhibition at 0.123 µM (HIV-1 Dose 0.123 uM) was under 10%, the inhibition at 0.37 µM (HIV-1 Dose 0.370 uM) was under 10% and the inhibition at 1.1 µM (HIV-1 Dose 1.100 uM) was 17.8%. The inhibition at 3.3 µM (HIV-1 Dose 3.300 uM) was 43.2%, the inhibition at 10 µM (HIV-1 Dose 10.000 uM) was 67.1% and the inhibition at 30 µM (HIV-1 Dose 30.000 uM) was 69.6%.
`CCC(Cc1ccccc1)c1cc(O)c(C(c2cccc(NC(=O)NCc3ccccc3)c2)C2CC2)c(=O)o1` (stereo not drawn) [Example 213, 3-(α-Cyclopropyl-meta-[(benzylaminocarbonyl)amino]benzyl)-6-(α-ethylphenethyl)-4-hydroxy-2H-pyran-2-one] gave an inhibition at 0.123 µM (HIV-1 Dose 0.123 uM) of under 10%, an inhibition at 0.37 µM (HIV-1 Dose 0.370 uM) of 12.1% and an inhibition at 1.1 µM (HIV-1 Dose 1.100 uM) of 30%. It also gave an inhibition at 3.3 µM (HIV-1 Dose 3.300 uM) of 55.4%, an inhibition at 10 µM (HIV-1 Dose 10.000 uM) of 83.7% and an inhibition at 30 µM (HIV-1 Dose 30.000 uM) of 85.8%.
In the case of `CCC(Cc1ccccc1)c1cc(O)c(C(c2cccc(NC(=O)Nc3ccc(OC)cc3)c2)C2CC2)c(=O)o1` (stereo not drawn) [Example 214, 3-(α-Cyclopropyl-meta-[(4-methoxyphenylaminocarbonyl)amino]benzyl)-6-(α-ethylphenethyl)-4-hydroxy-2H-pyran-2-one], the inhibition at 0.123 µM (HIV-1 Dose 0.123 uM) is reported as under 10%, the inhibition at 0.37 µM (HIV-1 Dose 0.370 uM) is reported as under 10% and the inhibition at 1.1 µM (HIV-1 Dose 1.100 uM) is reported as 32%. For the same compound, the inhibition at 3.3 µM (HIV-1 Dose 3.300 uM) was 66%, the inhibition at 10 µM (HIV-1 Dose 10.000 uM) was 79.5% and the inhibition at 30 µM (HIV-1 Dose 30.000 uM) was 86%.
`CCC(Cc1ccccc1)c1cc(O)c(C(c2cccc(NC(=O)Nc3ccc(Br)cc3)c2)C2CC2)c(=O)o1` (stereo not drawn) [Example 215, 3-(α-Cyclopropyl-meta-[(4-bromophenylaminocarbonyl)amino]benzyl)-6-(α-ethylphenethyl)-4-hydroxy-2H-pyran-2-one] showed an inhibition at 0.123 µM (HIV-1 Dose 0.123 uM) of under 10%, an inhibition at 0.37 µM (HIV-1 Dose 0.370 uM) of under 10% and an inhibition at 1.1 µM (HIV-1 Dose 1.100 uM) of under 10%. For the same compound, the inhibition at 3.3 µM (HIV-1 Dose 3.300 uM) was 16.1%, the inhibition at 10 µM (HIV-1 Dose 10.000 uM) was 23.1% and the inhibition at 30 µM (HIV-1 Dose 30.000 uM) was 28.8%.
`CCC(Cc1ccccc1)c1cc(O)c(C(c2cccc(NC(=O)NS(=O)(=O)c3ccccc3)c2)C2CC2)c(=O)o1` (stereo not drawn) [Example 216, 3-(α-Cyclopropyl-meta-[(phenylsulfonylaminocarbonyl)amino]benzyl)-6-(α-ethylphenethyl)-4-hydroxy-2H-pyran-2-one] was tested, and the inhibition at 0.123 µM (HIV-1 Dose 0.123 uM) was under 10%, the inhibition at 0.37 µM (HIV-1 Dose 0.370 uM) was 29.8% and the inhibition at 1.1 µM (HIV-1 Dose 1.100 uM) was 61.1%. It also gave an inhibition at 3.3 µM (HIV-1 Dose 3.300 uM) of 85.6%, an inhibition at 10 µM (HIV-1 Dose 10.000 uM) of 91.5% and an inhibition at 30 µM (HIV-1 Dose 30.000 uM) of 90.5%. For the same compound, the Ki was 122 nM.
